Target: T1, AHR (UniProt P35869)
T1 sequence (P35869 1-848): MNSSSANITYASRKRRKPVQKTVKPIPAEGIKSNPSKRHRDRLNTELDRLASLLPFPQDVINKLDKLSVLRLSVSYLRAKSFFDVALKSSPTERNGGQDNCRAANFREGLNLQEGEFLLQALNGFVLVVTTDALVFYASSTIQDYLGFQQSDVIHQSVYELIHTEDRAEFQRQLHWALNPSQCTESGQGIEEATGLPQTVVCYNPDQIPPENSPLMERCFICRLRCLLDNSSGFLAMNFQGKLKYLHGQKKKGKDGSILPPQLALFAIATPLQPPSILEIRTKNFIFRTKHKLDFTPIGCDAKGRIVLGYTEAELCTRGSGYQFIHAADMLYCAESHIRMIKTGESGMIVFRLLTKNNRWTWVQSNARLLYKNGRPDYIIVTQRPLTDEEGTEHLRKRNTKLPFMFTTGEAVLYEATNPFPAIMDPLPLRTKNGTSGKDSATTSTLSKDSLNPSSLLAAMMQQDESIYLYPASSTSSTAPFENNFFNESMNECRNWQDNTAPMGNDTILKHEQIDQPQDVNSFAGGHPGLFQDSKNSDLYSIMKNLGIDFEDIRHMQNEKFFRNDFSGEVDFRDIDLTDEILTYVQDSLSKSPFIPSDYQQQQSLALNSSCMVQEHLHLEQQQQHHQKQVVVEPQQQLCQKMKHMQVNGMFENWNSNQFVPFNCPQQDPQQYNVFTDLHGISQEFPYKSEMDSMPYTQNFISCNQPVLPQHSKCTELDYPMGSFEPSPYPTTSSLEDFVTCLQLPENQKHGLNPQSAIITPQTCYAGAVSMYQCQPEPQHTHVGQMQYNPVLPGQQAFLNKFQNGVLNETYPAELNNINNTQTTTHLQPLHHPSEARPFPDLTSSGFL
Assay: DRE-Luciferase Reporter Assay (Alternate Method), Example 1B
Assay type: cell-based
Details: concentration which inhibits half of the luciferase activity induced by AHR activating ligand; DRE-luciferase reporter cell line
Protocol: AHR binds to Dioxin Responsive Elements (DRE) upstream of genes that it activates. One measure of AHR activity is activation of a reporter gene, such as luciferase, downstream of one or multiple DRE elements. Luciferase activity will reflect activation and inhibition of AHR in the cells expressing his reporter.
Murine Hepa1-6 or Hepa-1c1c7 or other murine cell line with a DRE-luciferase reporter either stably or transiently transfected were plated in media in plates (96-well, 384-well or other plates) and incubated overnight at 37° C. in a C02 incubator or compound and agonist were added at the time of plating. Likewise, human HepG2 or other human cell line with a DRE-luciferase reporter either stably or transiently transfected were plated in media in plates (96-well, 384-well or other plates) and incubated overnight at 37° C. in a C02 incubator or compound and agonist were added at the time of plating.
At the time that cells are plated or following incubation overnight, an AHR activating ligand, such as TCDD, kynurenine, ITE (2-(1H-indole-3-ylcarbonyl)-4-thiazolecarboxylic methyl ester), VAF347, BNF (beta-naphthoflavone), FICZ (6-formylindolo(3,2-b) carbazole or other AHR ligands, was added with or without AHR antagonist.
Cells were incubated for 4, 15 or 24 hours or another time point and then lysed for determination of luciferase activity as a read-out of the AHR activation or inhibition. Luciferase was measured with a commercial kit such as the Promega Luciferase kit or any kit or reagents that provide the luciferin substrate for measuring luciferase activity. The level of luciferase with only activating ligand added was the maximum signal while the luciferase with no ligand was the minimum signal. IC50 values were determined as the concentration which inhibits half of the luciferase activity.

IC50 [µM]	SMILES
> 1.5	CC(C)c1cnn2c(N[C@H]3CCc4[nH]c5cnccc5c4C3)nc(-c3cncc(F)c3)nc12 [Compound I-13b, (6S)—N-[2-(5-fluoro-3-pyridyl)-8-isopropyl-pyrazolo[1,5-a][1,3,5]triazin-4-yl]-6,7,8,9-tetrahydro-5H-pyrido[3,4-b]indol-6-amine]
< 0.5	C[C@H](N)c1cnn2c(N[C@@H]3CCc4[nH]c5ccccc5c4C3)nc(-c3cncc(F)c3)nc12 [Compound I-32a, (3R)—N-[8-[(1S)-1-Aminoethyl]-2-(5-fluoro-3-pyridyl)pyrazolo[1,5-a][1,3,5]triazin-4-yl]-2,3,4,9-tetrahydro-1H-carbazol-3-amine]
0.5 to 1	C[C@@H](NC(=O)N1CCN(C)CC1)c1cnn2c(N[C@@H]3CCc4[nH]c5ccccc5c4C3)nc(-c3cncc(F)c3)nc12 [Compound I-61b, N-[(1R)-1-[2-(5-Fluoro-3-pyridyl)-4-[[(3R)-2,3,4,9-tetrahydro-1H-carbazol-3-yl]amino]pyrazolo[1,5-a][1,3,5]triazin-8-yl]ethyl]-4-methyl-piperazine-1-carboxamide]
> 1.5	CC(C)c1cnn2c(N[C@@H]3CCc4[nH]c5ccccc5c4C3)nc(-c3ccc(N(C)C)nc3)nc12 [Compound I-6, (3R)—N-[2-[6-(dimethylamino)-3-pyridyl]-8-isopropyl-pyrazolo[1,5-a][1,3,5]triazin-4-yl]-2,3,4,9-tetrahydro-1H-carbazol-3-amine]
< 0.5	Nc1cnn2c(N[C@@H]3CCc4[nH]c5ccccc5c4C3)nc(-c3cncc(F)c3)nc12 [Compound I-31, 2-(5-Fluoro-3-pyridyl)-N4-[(3R)-2,3,4,9-tetrahydro-1H-carbazol-3-yl]pyrazolo[1,5-a][1,3,5]triazine-4,8-diamine]
1 to 1.5	Cc1cnc2c(N[C@@H]3CCc4[nH]c5ccccc5c4C3)nc(-c3cncc(F)c3)nc2c1 [Compound I-14, (3R)—N-[2-(5-fluoro-3-pyridyl)-7-methyl-pyrido[3,2-d]pyrimidin-4-yl]-2,3,4,9-tetrahydro-1H-carbazol-3-amine]
0.5 to 1	CC(C)c1cnn2c(N[C@@H]3CCc4[nH]c5ccccc5c4C3)nc(C3CCOC3)nc12 (stereo partly drawn) [Compound I-17, (3R)—N-(8-isopropyl-2-tetrahydrofuran-3-yl-pyrazolo[1,5-a][1,3,5]triazin-4-yl)-2,3,4,9-tetrahydro-1H-carbazol-3-amine]
> 1.5	COc1cncc(-c2nc(N[C@@H]3CCc4[nH]c5ccccc5c4C3)n3ncc(C(C)C)c3n2)c1 [Compound I-3, (3R)—N-[8-Isopropyl-2-(5-methoxy-3-pyridyl)pyrazolo[1,5-a][1,3,5]triazin-4-yl]-2,3,4,9-tetrahydro-1H-carbazol-3-amine]
< 0.5	COCC[C@@H](C)c1cnn2c(N[C@@H]3CCc4[nH]c5ccccc5c4C3)nc(-c3cncc(F)c3)nc12 [Compound I-65b, (3R)—N-[2-(5-fluoro-3-pyridyl)-8-[(1R)-3-methoxy-1-methyl-propyl]pyrazolo[1,5-a][1,3,5]triazin-4-yl]-2,3,4,9-tetrahydro-1H-carbazol-3-amine]
< 0.5	C[C@@H](NCC1CC1)c1cnn2c(N[C@@H]3CCc4[nH]c5ccccc5c4C3)nc(-c3cncc(F)c3)nc12 [Compound I-20b, (3R)—N-[8-[(1R)-1-(Cyclopropylmethylamino)ethyl]-2-(5-fluoro-3-pyridyl)pyrazolo[1,5-a][1,3,5]triazin-4-yl]-2,3,4,9-tetrahydro-1H-carbazol-3-amine]
> 1.5	CC(C)c1cnn2c(N[C@@H]3CCc4[nH]c5cnccc5c4C3)nc(-c3cncc(F)c3)nc12 [Compound I-13a, (6R)—N-[2-(5-fluoro-3-pyridyl)-8-isopropyl-pyrazolo[1,5-a][1,3,5]triazin-4-yl]-6,7,8,9-tetrahydro-5H-pyrido[3,4-b]indol-6-amine]
> 1.5	CC(C)c1cnn2c(N[C@@H]3CCc4[nH]c5ccccc5c4C3)nc(-c3ccc(N4CCOCC4)nc3)nc12 [Compound I-2, (3R)—N-[8-Isopropyl-2-(6-morpholino-3-pyridyl)pyrazolo[1,5-a][1,3,5]triazin-4-yl]-2,3,4,9-tetrahydro-1H-carbazol-3-amine]
< 0.5	C[C@H](NC(=O)N1CCOCC1)c1cnn2c(N[C@@H]3CCc4[nH]c5ccccc5c4C3)nc(-c3cncc(F)c3)nc12 [Compound I-56a, N-[(1S)-1-[2-(5-Fluoro-3-pyridyl)-4-[[(3R)-2,3,4,9-tetrahydro-1H-carbazol-3-yl]amino]pyrazolo[1,5-a][1,3,5]triazin-8-yl]ethyl]morpholine-4-carboxamide]
< 0.5	CC(C)c1cnn2c(N[C@@H]3CNc4ncncc4C3)nc(-c3cncc(F)c3)nc12 [Compound I-60b, (6S)—N-[2-(5-fluoro-3-pyridyl)-8-isopropyl-pyrazolo[1,5-a][1,3,5]triazin-4-yl]-5,6,7,8-tetrahydropyrido[2,3-d]pyrimidin-6-amine]
> 1.5	CC(C)c1cnn2c(N[C@H]3CC[C@@H](O)CC3)nc(-c3cncc(F)c3)nc12 [Compound I-44b, 4-[[2-(5-Fluoro-3-pyridyl)-8-isopropyl-pyrazolo[1,5-a][1,3,5]triazin-4-yl]amino]cyclohexanol]
0.5 to 1	CN1CCN(c2cnn3c(N[C@@H]4CCc5[nH]c6ccccc6c5C4)nc(-c4cncc(F)c4)nc23)CC1 [Compound I-52, (3R)—N-[2-(5-Fluoro-3-pyridyl)-8-(4-methylpiperazin-1-yl)pyrazolo[1,5-a][1,3,5]triazin-4-yl]-2,3,4,9-tetrahydro-1H-carbazol-3-amine]
0.5 to 1	CC(C)c1cnn2c(N[C@H]3CNc4ccccc4C3)nc(-c3cncc(F)c3)nc12 [Compound I-35b, (R)—N-(2-(5-Fluoropyridin-3-yl)-8-isopropylpyrazolo[1,5-a][1,3,5]triazin-4-yl)-1,2,3,4-tetrahydroquinolin-3-amine]
< 0.5	CC(C)(O)c1cnn2c(N[C@@H]3CCc4[nH]c5ccccc5c4C3)nc(-c3cncc(F)c3)nc12 [Compound I-9, 2-[2-(5-Fluoro-3-pyridyl)-4-[[(3R)-2,3,4,9-tetrahydro-1H-carbazol-3-yl]amino]pyrazolo[1,5-a][1,3,5]triazin-8-yl]propan-2-ol]
> 1.5	CC(C)c1cnn2c(N[C@H]3CCc4c(cc[nH]c4=O)C3)nc(-c3cncc(F)c3)nc12 [Compound I-66b, (6S)-6-[[2-(5-fluoro-3-pyridyl)-8-isopropyl-pyrazolo[1,5-a][1,3,5]triazin-4-yl]amino]-5,6,7,8-tetrahydro-2H-isoquinolin-1-one]
> 1.5	CC(C)c1cnn2c(N[C@@H]3CCc4[nH]c5cc(O)ccc5c4C3)nc(-c3cncc(F)c3)nc12 [Compound I-27a, (6R)-6-[[2-(5-Fluoro-3-pyridyl)-8-isopropyl-pyrazolo[1,5-a][1,3,5]triazin-4-yl]amino]-6,7,8,9-tetrahydro-5H-carbazol-2-ol]
< 0.5	Fc1cncc(-c2nc(N[C@@H]3CCc4[nH]c5ccccc5c4C3)n3ncc(N4CCOCC4)c3n2)c1 [Compound I-38, (3R)—N-[2-(5-Fluoro-3-pyridyl)-8-morpholino-pyrazolo[1,5-a][1,3,5]triazin-4-yl]-2,3,4,9-tetrahydro-1H-carbazol-3-amine]
< 0.5	Cc1ccnc2c(N[C@@H]3CCc4[nH]c5ccccc5c4C3)nc(-c3cncc(F)c3)nc12 [Compound I-22, (3R)—N-[2-(5-fluoro-3-pyridyl)-8-methyl-pyrido[3,2-d]pyrimidin-4-yl]-2,3,4,9-tetrahydro-1H-carbazol-3-amine]

Source: patent publication US20220144839A1, “INDOLE AHR INHIBITORS AND USES THEREOF” (Ikena Oncology, Inc., priority 2018, published 2022)
